Laboratory results as given in patent US20240398823A1, “DUAL INHIBITOR OF HISTONE DEACETYLASE 6 AND HEAT SHOCK PROTEIN 90” (TAIPEI MEDICAL UNIVERSITY, priority 2021, published 2024).

What was measured:
[1] = tested on: PD-L1 and IDO expression in HCT116 and CT26 cell lines; test: Western blot of IFN-γ-induced PD-L1 and IDO, STAT1 pathway, in HCT116 and CT26; assay type: cell-based, human; mouse; conditions: HCT116 and CT26, 48 hours, via p-STAT1 and STAT1
Protocol: The cells were tested in 6-well plates with 32×10^4 cells/well and co-treated with Compound 75 for 48 hours and analyzed by flow cytometry. Bar, SD.
The effects of the HSP90/HDAC6 dual inhibitors as described in Synthesis Examples (such as Compounds 63, 64, and 66 to 76) on several factors were evaluated. Cells were lysed in RIPA buffer (Thermo Fisher Scientific, Wal-tham, MA, USA) and protease inhibitor (Roche, Basel, CH). Sample were further separated in 8% or 15% SDS-PAGE and transferred to nitrocellulose membrane and blocked with 5% skim milk (w/v in PBS). Nitrocellulose membranes were then incubated with primary antibodies against the following antigens: HSP90, Src, AKT, Rb, phosphorylated Rb (p-Rb), FAK, HSP70, α-tubulin acetylation, acetyl histone H3, phosphorylated STAT1 (p-STAT1), STAT1 (Cell signaling, Danvers, MA, USA), α-tubulin, Histone H3 (Genetex, Irvine, USA), IDO (Santa Cruz Biotechnology Dallas, TX, USA) and PD-L1 (Novus, Littleton, CO, USA) at 4° C. for overnight. The target proteins were visualized by using HRP-conjugated secondary antibodies (Jackson ImmunoResearch Laboratories, West Grove, PA, USA) and enhanced chemiluminescence kit (Thermo Fisher Scientific, Waltham, MA, U.S.A.).
Using western blot, whether Compound 75 reduced […]-induced PD-L1 and IDO performance by inhibiting STAT1 pathway was evaluated.

HDAC6 = molecular target: T1, HDAC6 (Homo sapiens, UniProt Q9UBN7); test: HDAC enzymes inhibition assay (Reaction Biology), HDAC6; assay type: biochemical; conditions: 10-dose, 3-fold dilution from 10 μM, single experiment
T1 construct: Reaction Biology Corporation (ran the assay as a service)
T1 sequence (Q9UBN7 1-1215): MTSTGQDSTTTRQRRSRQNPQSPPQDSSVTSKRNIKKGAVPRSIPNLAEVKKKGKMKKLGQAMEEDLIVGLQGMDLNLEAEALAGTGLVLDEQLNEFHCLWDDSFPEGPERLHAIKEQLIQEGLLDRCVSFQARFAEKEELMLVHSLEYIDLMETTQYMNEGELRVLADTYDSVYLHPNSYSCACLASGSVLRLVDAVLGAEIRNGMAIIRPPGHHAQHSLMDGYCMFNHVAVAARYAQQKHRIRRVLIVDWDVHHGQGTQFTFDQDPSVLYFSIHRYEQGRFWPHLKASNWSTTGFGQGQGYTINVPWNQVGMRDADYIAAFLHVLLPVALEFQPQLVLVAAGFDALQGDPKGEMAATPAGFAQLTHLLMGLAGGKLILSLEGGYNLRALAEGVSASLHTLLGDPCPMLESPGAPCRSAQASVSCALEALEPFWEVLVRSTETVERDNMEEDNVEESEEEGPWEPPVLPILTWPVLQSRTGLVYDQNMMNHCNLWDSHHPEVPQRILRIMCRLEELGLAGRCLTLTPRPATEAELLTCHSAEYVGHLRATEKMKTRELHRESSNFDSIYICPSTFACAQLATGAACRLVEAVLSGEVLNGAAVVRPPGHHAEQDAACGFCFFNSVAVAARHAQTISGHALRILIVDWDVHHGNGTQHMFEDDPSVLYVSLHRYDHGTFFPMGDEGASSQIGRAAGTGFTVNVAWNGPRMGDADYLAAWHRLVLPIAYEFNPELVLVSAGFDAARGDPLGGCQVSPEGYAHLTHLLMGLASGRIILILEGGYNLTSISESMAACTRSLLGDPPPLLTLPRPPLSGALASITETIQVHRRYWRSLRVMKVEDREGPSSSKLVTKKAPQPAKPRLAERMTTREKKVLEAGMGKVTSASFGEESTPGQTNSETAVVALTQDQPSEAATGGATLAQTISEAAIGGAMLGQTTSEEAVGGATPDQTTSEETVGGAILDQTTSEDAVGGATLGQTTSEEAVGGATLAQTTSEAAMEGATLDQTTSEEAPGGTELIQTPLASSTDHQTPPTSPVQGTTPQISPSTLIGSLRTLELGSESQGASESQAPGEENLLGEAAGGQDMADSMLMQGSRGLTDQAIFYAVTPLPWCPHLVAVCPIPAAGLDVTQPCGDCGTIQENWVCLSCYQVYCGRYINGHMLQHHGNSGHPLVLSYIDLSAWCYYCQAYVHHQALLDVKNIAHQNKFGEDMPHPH

With `COc1ccc(N(Cc2ccc(C(=O)NO)cc2)C(=O)c2cc(C(C)C)c(O)cc2O)cc1` [Compound 75, 2,4-Dihydroxy-N-(4-hydroxycarbamoyl-benzyl)-5-isopropyl-N-(4-methoxy-phenyl)-benzamide] the “IFN-γ-induced PD-L1 and IDO expression” value [1] was “downregulated PD-L1 and IDO expression” and the IC50 (HDAC6) was 4.56 nM.
